Values of other authors, collected in patent US8975284B2, “Co-solvent compositions and methods for improved delivery of dantrolene therapeutic agents” (US WorldMeds LLC, priority 2007, dated 2015).
Read-outs that look alike come from different tables or passages of the source.

Key:
[1] = not given; remark: listed apart in the source
[2] = not given; remark: listed apart in the source

pKa	solubility of free acid form [2]	Structure (SMILES)	pKa [1]
7.4		O=C1CN(/N=C/c2ccc(-c3ccc([N+](=O)[O-])cc3)o2)C(=O)[N-]1.[Na+] [Dantrolene sodium, 1-[[5-(p-nitrophenyl)furfurylidene]-amino]hydantoin sodium salt]	
		CC(C)(C)O [TBA, Tertiary Butyl Alcohol]	15.37 ± 0.29
about 7.5	totally insoluble	O=C1CN(N=Cc2ccc(-c3ccc([N+](=O)[O-])cc3)o2)C(=O)N1 [dantrolene, 1-[5-(p-nitrophenyl)furfurylideneamino]hydantoin]	
